Experimental data from patent EP1283052A1, “Pharmaceutical composition containing caspase-8 and /or caspase-9 useful for overcoming glucocorticoid- and cancer therapy-induced apoptosis of tumours” (Deutsches Krebsforschungszentrum Stiftung des öffentlichen …, priority 2001, dated 2003).

Tested on: P5, P693 and CEM cells
Test: Mitochondrial membrane potential by JC-1 staining and flow cytometry
Type: cell-based, human
Settings: 24 h, co-stimulation with cisplatin 2 µg/ml on top of DEX; Fig. 3a
Method: • (a) P5, P693 or CEM cells, either untreated (CO) or stimulated with cisplatin (CIS, 2 µg/ml) were incubated in the absence (white bars) or presence (black bars) of DEX (1 µM). 24 h later cells were stained with the cationic dye JC-1 which indicates mitochondrial depolarization by an increase in green fluorescence. The percentage of green-fluorescent cells was determined by flow cytometry. • (b) P5 cells were treated as described above. 6 or 24 h later mitochondrial fractions were prepared and assayed by Western blotting using a monoclonal antibody which specifically detects the 15 kDa cytochrome c protein. The results depicted here have been performed three times with similar outcome.
• (A) Cell culture. […] The mice were given 0.28 mg/L DEX in drinking water, and the amount of water consumed was monitored. […] The tumour volumes were measured using callipers, and calculated using, as an approximation, the formula for volume of a hemi-ellipsoid: π(width^2 x length)/6. […] Early apoptotic changes were identified by staining of cells with fluoresceinthiocyanate (FITC)-conjugated annexin V and propidium iodide (Becton Dickinson, Heidelberg, Germany) and analysed by flow cytometry (FACScan, Becton Dickinson) as described (Herr et al., EMBO J. 16 (1997), 6200-6208) • (E) Immunohistochemistry. […] Protein expression was detected by Western blotting as described (Herr et al., 1997). […]

Question: Which “percentage of green fluorescence (mitochondrial damage)” value does the source give for N.N.[Cl][Pt][Cl] [cisplatin] here?
Answer: The value was “further enhanced”.
